A short description of data set [1]: biodistribution by ex vivo γ-counting in Sprague Dawley rats. As to the method:
To evaluate the biodistribution of the pure S (II) and R (III) enantiomers compared to compound (I), dynamic PET scan imaging and ex vivo gamma counting were performed on Sprague Dawley rats. Animals were injected with the radiotracer solution diluted in NaCl 0.9% to prepare a solution of activity 4-6 MBq (gamma-counting experiments) or 11-13 MBq (PET imaging experiments) in a volume of 300-400 or 600-800 μL, respectively. Radioactivity content in all biological samples was determined with scintillation γ-counter (Cobra 4180, Perkin-Elmer Inc.).
At the light of the biodistribution data of compound (I), the biodistribution of the R (III)- and S (II)-enantiomers was assessed by γ-counting in the organs in which the accumulation of compound (I) was prominent (that is: blood, heart, kidneys, liver, stomach, small intestine and colon). Two timepoints were selected: 5 and 30 minutes post-injection. […] The higher uptakes of R enantiomer (III) and S enantiomer (II) in these organs were expected to be observed at early timepoints after injection, giving the highest signals in the γ-counter and therefore making the comparison of biodistribution data more relevant. Besides, as PET images were acquired with compound (I), PET imaging was included in the evaluation of the biodistribution of R enantiomer and S enantiomer. This gave the opportunity to had one additional timepoint at 4 hours post-injection for collection of major organs and determination of radioactivity content by ex vivo γ-counting.

Data set [2] relates to human lung tumors (wild type EGFR, L858R mutated or exon 19 deleted EGFR). The data set can be described thus: autoradiography on human frozen tumor sections.
Text: Three types of human lung tumors were included: tumors harboring wild type EGFR and tumors carrying L858R mutated or exon 19 deleted EGFR genes.
Data set [3] addresses T1, NCI-H1975 tumor homogenates (activated EGFR) (Homo sapiens, UniProt P00533, L858R/T790M).
T1 construct: from tissue; host or cells: NCI-H1975 tumor homogenate
The data set can be described thus: binding competition and binding kinetic on tumor homogenates. As to the method:
(§1) FIG. 2: Binding affinity constant of Compound (II) determined in competition experiments on NCI-H3255 (A) and NCI-H1975 (B) tumor extracts. NCI-H3255 and NCI-H1975 tumor extracts were incubated at room temperature for 90 min with Compound (II) (0.1-0.3 nM) and with increasing concentrations of Compound (IIa) (0.25 nM to 1 μM).
(§2) FIG. 3: Binding kinetic of Compound (II) evaluated on NCI-H3255 (A) and NCI-H1975 (B) tumor extracts. Compound (II) (1.5-2.5 nM) was incubated with extracts for 2 to 90 minutes at room temperature. Non-specific binding was evaluated in the presence of a>100 fold excess Compound (IIa).
(§3) Similar experiments were performed on NCI-H3255 and NCI-H1975 tumor homogenates (FIG. 2). […] The number of binding sites was 1.1±1.5×10^9 and 1.6±1.8×10^9 sites/μg protein respectively in NCI-H3255 and NCI-H1975 tumor homogenates.
(§4) The binding kinetic of Compound (I) was also assessed in NCI-H3255 and NCI-H1975 tumor homogenates (FIG. 3).

Data set [4] concerns the target T2, NCI-H3255 tumor homogenates (activated EGFR) (Homo sapiens, UniProt P00533, L858R).
T2 construct: from tissue; host or cells: NCI-H3255 tumor homogenate
Described as above. As to the method:
as §1, §2, §3, §4

[5] abbreviates: read-out: dissociation constant (Koff) (converted).

T2 sequence (P00533 25-1210 L858R): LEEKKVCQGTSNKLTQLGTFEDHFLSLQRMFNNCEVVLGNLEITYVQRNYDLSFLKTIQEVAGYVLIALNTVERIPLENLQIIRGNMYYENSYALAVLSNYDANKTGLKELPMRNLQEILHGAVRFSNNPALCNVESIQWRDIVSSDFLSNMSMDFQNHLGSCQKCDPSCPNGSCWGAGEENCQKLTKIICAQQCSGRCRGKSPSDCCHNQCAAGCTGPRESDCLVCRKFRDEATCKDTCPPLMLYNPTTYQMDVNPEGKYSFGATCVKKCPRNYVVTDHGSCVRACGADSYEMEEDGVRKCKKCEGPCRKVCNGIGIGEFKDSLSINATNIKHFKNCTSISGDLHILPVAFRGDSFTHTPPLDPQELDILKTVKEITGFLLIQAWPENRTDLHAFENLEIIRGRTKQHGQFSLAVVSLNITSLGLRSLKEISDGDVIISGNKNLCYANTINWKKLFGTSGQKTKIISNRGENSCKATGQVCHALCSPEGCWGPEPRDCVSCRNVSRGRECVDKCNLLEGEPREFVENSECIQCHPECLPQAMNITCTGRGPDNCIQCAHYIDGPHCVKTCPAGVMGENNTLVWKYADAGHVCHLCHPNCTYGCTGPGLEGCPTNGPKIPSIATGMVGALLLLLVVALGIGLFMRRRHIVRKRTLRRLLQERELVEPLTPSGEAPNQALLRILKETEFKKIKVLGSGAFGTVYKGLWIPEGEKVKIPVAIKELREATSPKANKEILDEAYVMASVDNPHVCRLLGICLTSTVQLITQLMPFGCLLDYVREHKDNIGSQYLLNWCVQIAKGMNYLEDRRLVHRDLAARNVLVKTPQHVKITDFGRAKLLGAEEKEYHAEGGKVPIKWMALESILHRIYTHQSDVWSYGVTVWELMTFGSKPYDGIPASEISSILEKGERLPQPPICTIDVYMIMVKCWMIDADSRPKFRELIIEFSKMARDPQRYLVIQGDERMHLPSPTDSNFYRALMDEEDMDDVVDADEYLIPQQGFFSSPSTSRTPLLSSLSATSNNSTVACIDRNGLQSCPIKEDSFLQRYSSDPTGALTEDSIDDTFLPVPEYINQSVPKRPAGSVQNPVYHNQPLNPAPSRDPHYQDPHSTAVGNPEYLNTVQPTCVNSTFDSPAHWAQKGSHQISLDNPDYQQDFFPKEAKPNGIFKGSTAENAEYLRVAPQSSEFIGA
T1 sequence (P00533 25-1210 T790M/L858R): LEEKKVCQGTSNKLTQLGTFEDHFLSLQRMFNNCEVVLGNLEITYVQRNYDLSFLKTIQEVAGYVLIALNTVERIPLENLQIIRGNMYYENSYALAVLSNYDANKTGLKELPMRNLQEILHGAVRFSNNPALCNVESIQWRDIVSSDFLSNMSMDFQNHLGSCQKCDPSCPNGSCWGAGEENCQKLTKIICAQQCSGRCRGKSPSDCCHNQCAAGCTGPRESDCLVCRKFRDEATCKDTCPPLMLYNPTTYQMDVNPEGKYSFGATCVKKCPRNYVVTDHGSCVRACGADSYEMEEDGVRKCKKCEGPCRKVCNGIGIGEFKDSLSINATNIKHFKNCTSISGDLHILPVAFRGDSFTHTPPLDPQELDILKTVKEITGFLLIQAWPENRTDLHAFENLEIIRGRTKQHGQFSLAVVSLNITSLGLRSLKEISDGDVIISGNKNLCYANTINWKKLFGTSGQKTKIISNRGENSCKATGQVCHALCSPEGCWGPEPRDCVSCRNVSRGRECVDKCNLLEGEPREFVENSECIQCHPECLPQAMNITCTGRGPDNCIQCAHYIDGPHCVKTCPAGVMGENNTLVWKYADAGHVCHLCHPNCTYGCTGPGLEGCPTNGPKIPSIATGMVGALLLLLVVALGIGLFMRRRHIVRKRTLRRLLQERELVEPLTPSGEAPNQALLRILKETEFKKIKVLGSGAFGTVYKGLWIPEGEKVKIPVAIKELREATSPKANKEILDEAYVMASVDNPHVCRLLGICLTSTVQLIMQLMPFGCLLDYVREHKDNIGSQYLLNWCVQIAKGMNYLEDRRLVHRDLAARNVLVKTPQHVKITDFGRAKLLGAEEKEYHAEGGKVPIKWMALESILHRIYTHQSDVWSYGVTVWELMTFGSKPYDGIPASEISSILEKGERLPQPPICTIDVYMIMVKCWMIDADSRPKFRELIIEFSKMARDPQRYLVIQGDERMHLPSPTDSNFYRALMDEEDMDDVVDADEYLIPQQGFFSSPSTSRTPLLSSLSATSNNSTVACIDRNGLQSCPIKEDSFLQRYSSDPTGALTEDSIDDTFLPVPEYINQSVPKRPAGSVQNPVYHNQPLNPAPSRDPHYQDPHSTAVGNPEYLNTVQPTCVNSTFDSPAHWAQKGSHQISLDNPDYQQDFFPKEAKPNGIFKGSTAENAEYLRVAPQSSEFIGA

In the case of `CC(C)C1NC(=O)Cc2ccc(Cl)cc2Nc2ncnc3cc(OCC[18F])c(cc23)OCCCNC1=O` (centres unmarked) [Compound (I)], the uptake in liver in data set [1] (5 minutes post injection) is on record as 1.66±0.43 % ID/g; in data set [1] (30 minutes post injection), 0.37±0.07 % ID/g. Further, the figures for the “uptake in small intestine” value in data set [1] (5 minutes post injection) and in data set [1] (thirty minutes post-injection) were 0.28±0.15 % ID/g and 0.40±0.40 % ID/g, respectively. Besides, the uptake in blood in data set [1] (5 minutes post-injection) was 0.13±0.02 % ID/g. The results for the uptake in heart in data set [1] (5 minutes post-injection) and in data set [1] (30 minutes post-injection) were 0.91±0.12 % ID/g and 0.23±0.05 % ID/g, respectively. The uptake in kidneys came out at 5.07±0.30 % ID/g in data set [1] (5 minutes post-injection) and 1.47±0.36 % ID/g in data set [1] (30 minutes timepoint). Also, the uptake in stomach in data set [1] (5 minutes post-injection, unit printed as %) was found to be 1.27±2.13%; in data set [1] (30 minutes timepoint) it was 2.72±4.75 % ID/g; in data set [1] (four hours post-injection), 0.14±0.23 % ID/g. The uptake in colon in data set [1] (four hours post-injection) is listed as 10.55±4.53 % ID/g. Also, in data set [2], the “specific binding on frozen tumor sections” value was “specific binding of Compound (I) was observed on all tumor types”. For the same compound, the entries for the “number of binding sites” value in data set [3] and in data set [4] were 1.6±1.8×10^9 sites/μg protein and 1.1±1.5×10^9 sites/μg protein, respectively. The Kd in data set [3] (read-out: binding affinity) is 4.7 ± 2 nM; in data set [4] (read-out: binding affinity), 2.8 ± 2.4 nM. Besides, the results for the koff in data set [3] (setting [5]) and in data set [4] (setting [5]) were 0.0045 s⁻¹ and 0.0019 s⁻¹, respectively.
